This note sets out measurements from patent publication US20080026996A1, “Selective Vpac2 Receptor Reptide Agonists” (ELI LILLY AND COMPANY, priority 2004, published 2008).

Data set [1] can be described thus: Pharmacokinetic assay: active peptide levels in rat plasma after IV injection.
Procedure: An IVGTT with glucose is given immediately after T=0 to 6 animals per condition. Samples are taken at 0, 2, 4, 6, and 10 minutes after injection.
For cell handling, Plate 50,000 cells/well and keep in culture over night. Wash cell twice in PBS and add 50 μl/well stimulation medium consisting of PBS+1.2 MgCl2, 1.3 CaCl2, 2 glucose and 0.5 IBMX. Incubate 15 minutes and add 50 μl/well of the plasma samples (see layout below). Incubate 30 minutes, remove the supernatant and proceed as normal with the DiscoveRx assay. Prepare plates in duplicate. Protease and peptidase inhibitor are present in all plasma samples.
The next data set has as its target T1, rat PAC1 receptor (Rattus norvegicus, UniProt P32215).
T1 construct: expressed in transfected cells; host or cells: CHO cells, crude membranes
T1 sequence (P32215 20-523): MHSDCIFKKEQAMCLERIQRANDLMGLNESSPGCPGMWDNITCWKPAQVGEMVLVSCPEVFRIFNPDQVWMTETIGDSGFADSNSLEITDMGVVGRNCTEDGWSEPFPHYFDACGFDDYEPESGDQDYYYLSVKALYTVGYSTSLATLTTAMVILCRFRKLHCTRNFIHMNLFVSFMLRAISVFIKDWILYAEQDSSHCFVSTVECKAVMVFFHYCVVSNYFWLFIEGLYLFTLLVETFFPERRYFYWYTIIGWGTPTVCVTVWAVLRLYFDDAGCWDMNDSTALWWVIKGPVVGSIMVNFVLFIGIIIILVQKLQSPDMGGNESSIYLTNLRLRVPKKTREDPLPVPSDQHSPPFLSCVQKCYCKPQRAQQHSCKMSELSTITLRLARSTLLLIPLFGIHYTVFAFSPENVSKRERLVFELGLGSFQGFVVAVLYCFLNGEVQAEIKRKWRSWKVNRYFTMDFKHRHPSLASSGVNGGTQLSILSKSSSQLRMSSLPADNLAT
In words: Adenylate cyclase assay on recombinant rat PAC1 receptor expressed in CHO cells. In kind it is biochemical.

Where [2] appears, read: Wistar, rat, plasma, iv, 10 ug/kg.

Where no end group is shown, it is not given here. Bounds are passed on as bounds.

Procedure for rat PAC1 receptor: All studies are performed on crude membranes prepared from three different cell cultures expressing the different recombinant receptors, using methodology that is known in the literature. Duplicate values are obtained for each assay.

For orientation: AUC(0-t) means exposure summed from dosing to a finite time, without extrapolation to infinity. A low value points to less exposure. By Cmax is commonly meant the highest concentration seen after dosing. The term half-life denotes how long it takes for the measured level to halve. Low readings indicate fast loss, high ones slow loss. For “H-MHSDAVFTDNYTRLRKQVAAKKYLQSIKNKRYGGPSSGAPPPS [Agonist P104]”, in data set [1] (setting [2]), the AUC(0-t) was 0.355 nM·h, the concentration peaked (Cmax) at 3.19 nM and the half-life amounted to 2.35 min. In addition, in data set [1] (rat plasma, 10 μg/kg i.v.), the “Exposure (10 μg/kg); clearance in μg/(min * nM * kg)” value amounted to 0.87 µg/min/nM/kg and the “Exposure (10 μg/kg, Vdist in μg/(nM * kg))” value amounted to 2.64 µg/nM/kg. In addition, the “potency ratio compared to PACAP-27” value on rat PAC1 receptor is listed as over 1000.
